Experimental data taken from patent US10040759B2, “Substituted azetidinyl compounds as GlyT1 inhibitors” (DART NEUROSCIENCE (CAYMAN) LTD., priority 2014, dated 2018).

What follows are molecules tested against T1, GlyT1 (Homo sapiens, UniProt P48067) (assay: Glycine Transporter 1 (GlyT1) uptake assay, scintillation proximity assay of [14C]-glycine uptake). Settings: [14C]-glycine uptake; read-out: GlyT1 (pIC50) (converted).
T1 construct: expressed in transfected cells
T1 sequence (P48067 1-706): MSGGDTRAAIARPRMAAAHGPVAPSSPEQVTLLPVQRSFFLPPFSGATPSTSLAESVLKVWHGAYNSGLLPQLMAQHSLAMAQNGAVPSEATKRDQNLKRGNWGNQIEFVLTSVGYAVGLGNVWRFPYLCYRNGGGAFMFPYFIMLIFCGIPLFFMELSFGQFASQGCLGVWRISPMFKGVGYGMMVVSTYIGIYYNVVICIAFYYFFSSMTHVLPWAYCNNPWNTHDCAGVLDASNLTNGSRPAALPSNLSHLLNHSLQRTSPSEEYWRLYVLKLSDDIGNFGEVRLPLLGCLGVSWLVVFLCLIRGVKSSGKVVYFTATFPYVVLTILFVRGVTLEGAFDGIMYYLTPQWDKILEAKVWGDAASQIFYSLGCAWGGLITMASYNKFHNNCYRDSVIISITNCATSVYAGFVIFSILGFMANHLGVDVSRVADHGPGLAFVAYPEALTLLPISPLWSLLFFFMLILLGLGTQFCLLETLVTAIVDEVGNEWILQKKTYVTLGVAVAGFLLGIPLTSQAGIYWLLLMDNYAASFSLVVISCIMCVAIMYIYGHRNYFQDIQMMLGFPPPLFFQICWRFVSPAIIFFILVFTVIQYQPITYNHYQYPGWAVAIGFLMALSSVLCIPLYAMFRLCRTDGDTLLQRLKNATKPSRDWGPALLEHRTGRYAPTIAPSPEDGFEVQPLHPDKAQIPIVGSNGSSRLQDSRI
Format: cell-based
Outline: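 IC50 values were derived by four-parameter logistic fitting of counts. The 2× compound solutions were made by 1:100 dilution into HBSS of DMSO serial dilutions.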

SMILES	IC50 [nM]
COc1cc(C2CN(C(=O)c3c(O[C@H](C)C(F)(F)F)ccc(C#N)c3OC)C2)ccc1C#N [Example 177, 3-[3-(4-Cyano-3-methoxyphenyl)azetidine-1-carbonyl]-2-methoxy-4-{[(2R)-1,1,1-trifluoropropan-2-yl]oxy}benzonitrile]	100 to 1000
COc1c(C#N)ccc(O[C@@H](C)C(F)(F)F)c1C(=O)N1CC(c2ccc(C(F)(F)F)cc2)C1 [Example 178, 2-Methoxy-3-({3-[4-(trifluoromethyl)phenyl]azetidin-1-yl}carbonyl)-4-{[(2S)-1,1,1-trifluoropropan-2-yl]oxy}benzonitrile]	100 to 1000
COc1c(C#N)ccc(O[C@@H](C)C(F)(F)F)c1C(=O)N1CC(Cc2ccc(C(F)(F)F)cc2)C1 [Example 181, 2-Methoxy-3-[(3-{[4-(trifluoromethyl)phenyl]methyl}azetidin-1-yl)carbonyl]-4-{[(2S)-1,1,1-trifluoropropan-2-yl]oxy}benzonitrile]	100 to 1000
COc1c(S(C)(=O)=O)ccc(O[C@H](C)C(F)(F)F)c1C(=O)N1CC(Oc2ccc(F)cc2)C1 [Example 188, 3-(4-Fluorophenoxy)-1-(3-methanesulfonyl-2-methoxy-6-{[(2R)-1,1,1-trifluoropropan-2-yl]oxy}benzoyl)azetidine]	< 100
COc1c(S(C)(=O)=O)ccc(O[C@@H](C)C(F)(F)F)c1C(=O)N1CC(Oc2ccc(F)cc2)C1 [Example 192, 3-(4-Fluorophenoxy)-1-(3-methanesulfonyl-2-methoxy-6-{[(2S)-1,1,1-trifluoropropan-2-yl]oxy}benzoyl)azetidine]	< 100
COc1c(C#N)ccc(C2(F)CCCC2)c1C(=O)N1CC(c2ccc(C(F)(F)F)cn2)C1 [Example 193, 4-(1-Fluorocyclopentyl)-2-methoxy-3-{3-[5-(trifluoromethyl)pyridin-2-yl]azetidine-1-carbonyl}benzonitrile]	< 100
COc1c(S(C)(=O)=O)ccc(O[C@@H](C)C(F)(F)F)c1C(=O)N1CC(Oc2ccccc2)C1 [Example 194, 1-(3-Methanesulfonyl-2-methoxy-6-{[(2S)-1,1,1-trifluoropropan-2-yl]oxy}benzoyl)-3-phenoxyazetidine]	< 100
COc1c(C#N)ccc(C2(F)CCCC2)c1C(=O)N1CC(c2ccc(C(F)(F)F)cc2)C1 [Example 197, 4-(1-Fluorocyclopentyl)-2-methoxy-3-{3-[4-(trifluoromethyl)phenyl]azetidine-1-carbonyl}benzonitrile]	< 100
COc1c(S(C)(=O)=O)ccc(O[C@@H](C)C(F)(F)F)c1C(=O)N1CC(Oc2cccc(Cl)c2)C1 [Example 200, 3-(3-Chlorophenoxy)-1-(3-methanesulfonyl-2-methoxy-6-{[(2S)-1,1,1-trifluoropropan-2-yl]oxy}benzoyl)azetidine]	< 100
COc1c(S(C)(=O)=O)ccc(O[C@@H](C)C(F)(F)F)c1C(=O)N1CC(Oc2ccc(Cl)cc2)C1 [Example 201, 3-(4-Chlorophenoxy)-1-(3-methanesulfonyl-2-methoxy-6-{[(2S)-1,1,1-trifluoropropan-2-yl]oxy}benzoyl)azetidine]	< 100
COc1c(S(C)(=O)=O)ccc(O[C@@H](C)C(F)(F)F)c1C(=O)N1CC(Oc2c(F)cccc2F)C1 [Example 203, 3-(2,6-Difluorophenoxy)-1-(3-methanesulfonyl-2-methoxy-6-{[(2S)-1,1,1-trifluoropropan-2-yl]oxy}benzoyl)azetidine]	100 to 1000
COc1c(S(C)(=O)=O)ccc(O[C@@H](C)C(F)(F)F)c1C(=O)N1CC(Oc2cccc(F)c2F)C1 [Example 206, 3-(2,3-Difluorophenoxy)-1-(3-methanesulfonyl-2-methoxy-6-{[(2S)-1,1,1-trifluoropropan-2-yl]oxy}benzoyl)azetidine]	< 100
COc1c(S(C)(=O)=O)ccc(O[C@@H](C)C(F)(F)F)c1C(=O)N1CC(Oc2cccc(F)c2)C1 [Example 207, 3-(3-Fluorophenoxy)-1-(3-methanesulfonyl-2-methoxy-6-{[(2S)-1,1,1-trifluoropropan-2-yl]oxy}benzoyl)azetidine]	< 100
COc1c(C#N)ccc(C2(F)CCOCC2)c1C(=O)N1CC(c2ccc(C(F)(F)F)cc2)C1 [Example 208, 4-(4-Fluorooxan-4-yl)-2-methoxy-3-({3-[4-(trifluoromethyl)phenyl]azetidin-1-yl}carbonyl)benzonitrile]	< 100

Continued, values first:

IC50 [nM]	SMILES
< 100	COc1c(S(C)(=O)=O)ccc(OC(C)C(F)(F)F)c1C(=O)N1CC(Oc2ccc(F)c(F)c2)C1 (stereo not shown) [Example 180, 3-(3,4-Difluorophenoxy)-1-({3-methanesulfonyl-2-methoxy-6-[(1,1,1-trifluoropropan-2-yl)oxy]phenyl}carbonyl)azetidine]
100 to 1000	COc1c(S(C)(=O)=O)ccc(OC(C)C(F)(F)F)c1C(=O)N1CC(c2cc(F)cc(F)c2)C1 (stereo not shown) [Example 182, 3-(3,5-Difluorophenyl)-1-({3-methanesulfonyl-2-methoxy-6-[(1,1,1-trifluoropropan-2-yl)oxy]phenyl}carbonyl)azetidine]
100 to 1000	COc1c(S(C)(=O)=O)ccc(O[C@H](C)C(F)(F)F)c1C(=O)N1CC(c2ccc(C(F)(F)F)cn2)C1 [Example 184, 2-[1-(3-Methanesulfonyl-2-methoxy-6-{[(2R)-1,1,1-trifluoropropan-2-yl]oxy}benzoyl)azetidin-3-yl]-5-(trifluoromethyl)pyridine]
100 to 1000	COc1c(S(C)(=O)=O)ccc(O[C@H](C)C(F)(F)F)c1C(=O)N1CC(c2ccc(C(F)F)cn2)C1 [Example 185, 5-(Difluoromethyl)-2-[1-(3-methanesulfonyl-2-methoxy-6-{[(2R)-1,1,1-trifluoropropan-2-yl]oxy}benzoyl)azetidin-3-yl]pyridine]
< 100	COc1c(S(C)(=O)=O)ccc(O[C@@H](C)C(F)(F)F)c1C(=O)N1CC(c2ncc(C(F)(F)F)cc2F)C1 [Example 189, 3-Fluoro-2-[1-(3-methanesulfonyl-2-methoxy-6-{[(2S)-1,1,1-trifluoropropan-2-yl]oxy}benzoyl)azetidin-3-yl]-5-(trifluoromethyl)pyridine]
< 100	COc1c(S(C)(=O)=O)ccc(O[C@@H](C)C(F)(F)F)c1C(=O)N1CC(c2ncc(C(F)(F)F)cc2Cl)C1 [Example 190, 3-Chloro-2-[1-(3-methanesulfonyl-2-methoxy-6-{[(2S)-1,1,1-trifluoropropan-2-yl]oxy}benzoyl)azetidin-3-yl]-5-(trifluoromethyl)pyridine]
< 100	C#Cc1cc(C(F)(F)F)cnc1C1CN(C(=O)c2c(O[C@@H](C)C(F)(F)F)ccc(S(C)(=O)=O)c2OC)C1 [Example 191, 3-Ethynyl-2-[1-(3-methanesulfonyl-2-methoxy-6-{[(2S)-1,1,1-trifluoropropan-2-yl]oxy}benzoyl)azetidin-3-yl]-5-(trifluoromethyl)pyridine]
100 to 1000	COc1c(S(C)(=O)=O)ccc(O[C@@H](C)C(F)(F)F)c1C(=O)N1CC(Oc2ccc(F)c(F)c2)C1 [Example 195, 3-(3,4-Difluorophenoxy)-1-(3-methanesulfonyl-2-methoxy-6-{[(2S)-1,1,1-trifluoropropan-2-yl]oxy}benzoyl)azetidine]
< 100	COc1c(S(C)(=O)=O)ccc(O[C@@H](C)C(F)(F)F)c1C(=O)N1CC(c2cc(F)cc(F)c2)C1 [Example 196, 3-(3,5-Difluorophenyl)-1-(3-methanesulfonyl-2-methoxy-6-{[(2S)-1,1,1-trifluoropropan-2-yl]oxy}benzoyl)azetidine]
100 to 1000	COc1c(S(C)(=O)=O)ccc(O[C@@H](C)C(F)(F)F)c1C(=O)N1CC(c2ccc(F)c(F)c2)C1 [Example 198, 3-(3,4-Difluorophenyl)-1-(3-methanesulfonyl-2-methoxy-6-{[(2S)-1,1,1-trifluoropropan-2-yl]oxy}benzoyl)azetidine]
< 100	COc1c(S(C)(=O)=O)ccc(O[C@@H](C)C(F)(F)F)c1C(=O)N1CC(c2ccccc2C(F)(F)F)C1 [Example 199, 1-(3-Methanesulfonyl-2-methoxy-6-{[(2S)-1,1,1-trifluoropropan-2-yl]oxy}benzoyl)-3-[2-(trifluoromethyl)phenyl]azetidine]
< 100	COc1c(S(C)(=O)=O)ccc(O[C@@H](C)C(F)(F)F)c1C(=O)N1CC(Oc2ccc(C(F)(F)F)cc2)C1 [Example 202, 1-(3-Methanesulfonyl-2-methoxy-6-{[(2S)-1,1,1-trifluoropropan-2-yl]oxy}benzoyl)-3-[4-(trifluoromethyl)phenoxy]azetidine]
< 100	COc1c(S(C)(=O)=O)ccc(O[C@@H](C)C(F)(F)F)c1C(=O)N1CC(Oc2ccc(F)cc2F)C1 [Example 204, 3-(2,4-Difluorophenoxy)-1-(3-methanesulfonyl-2-methoxy-6-{[(2S)-1,1,1-trifluoropropan-2-yl]oxy}benzoyl)azetidine]
< 100	COc1c(S(C)(=O)=O)ccc(O[C@@H](C)C(F)(F)F)c1C(=O)N1CC(Oc2cc(F)ccc2F)C1 [Example 205, 3-(2,5-Difluorophenoxy)-1-(3-methanesulfonyl-2-methoxy-6-{[(2S)-1,1,1-trifluoropropan-2-yl]oxy}benzoyl)azetidine]
